Columns and labels:
YbtPQ [1] = target: T1, YbtPQ (Escherichia coli, UniProt Q1RAG2+Q1RAG3); settings: YbtPQ-nanodisc; basal ATPase activity, no Km given
T1 construct: gene ybtP

YbtPQ [2] = target: T1, YbtPQ; settings: trapping at 37 °C for 15 min, vanadate 0-20 mM tested (20 mM with 18 mM ATP and 54 mM MgCl2 for the cryo-EM sample); YbtPQ-nanodisc; traps as ADP-Vi

Compound	ATPase activity, malachite green phosphate release (YbtPQ [1])	% drop in ATPase activity after vanadate trapping (YbtPQ [2])
Nc1ncnc2c1ncn2[C@@H]1O[C@H](COP(=O)(O)OP(=O)(O)OP(=O)(O)O)[C@@H](O)[C@H]1O [ATP]	malachite green reacting with the released phosphate group	
[O]=[V]([OH])([OH])[OH] [vanadate]		~ 90%
